According to publication PMC3413639 (PLoS ONE, 2012):
“And” between values parts separate entries of the source, which are not always exact repeats. Equal values may be shown once. Read-outs that look alike come from different tables or passages of the source.

Biological target: T1, 5-HT1A receptors (Rattus norvegicus, UniProt P19327)
T1 sequence (P19327 1-422): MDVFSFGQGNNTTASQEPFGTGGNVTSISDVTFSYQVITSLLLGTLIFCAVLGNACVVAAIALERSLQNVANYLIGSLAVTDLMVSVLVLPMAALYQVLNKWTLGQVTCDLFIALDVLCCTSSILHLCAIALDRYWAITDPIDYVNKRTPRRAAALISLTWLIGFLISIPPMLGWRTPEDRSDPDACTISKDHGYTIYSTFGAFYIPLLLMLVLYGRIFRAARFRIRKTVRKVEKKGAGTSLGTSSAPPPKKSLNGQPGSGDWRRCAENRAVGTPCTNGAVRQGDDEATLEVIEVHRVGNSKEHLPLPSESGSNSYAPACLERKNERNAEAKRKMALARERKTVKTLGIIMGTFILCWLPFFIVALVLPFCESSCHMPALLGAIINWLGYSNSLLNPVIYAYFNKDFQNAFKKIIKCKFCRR
Assay: [11C]WAY-100635-PET, BPND and 5-HT1A receptor occupancy
Type: in vivo
Design: Twenty-micrometer-thick frozen brain sections were preincubated; from tissue; host or cells: rat brain (hippocampus and raphe nucleus): frozen sections or living animals
Conditions: for BPND Hippocampus / BPND Raphe: [11C]WAY-100635, about 5 h before scan, mean ± S.E.; for receptor occupancy at 1 mg/kg / receptor occupancy at 3 mg/kg / receptor occupancy at 10 mg/kg / receptor occupancy at 30 mg/kg / receptor occupancy at 100 mg/kg: rat
Experimental: All PET scans were carried out using a microPET Focus 220 scanner (Siemens Medical Solutions USA, Knoxville, TN). The rats were anesthetized with 1.5–2% isoflurane in air (2 L/min flow rate). […] All list-mode data were stored into 3D sinograms, which were then Fourier-rebinned into 2D sinograms (26 frames: 4×1, 8×2, and 14×5 min). Images were reconstructed using 2D-filtered back-projection with a 0.5-mm Hanning filter. All PET images were manually coregistered to the MRI template by spatial translation and rotation of original PET images without geometric expansion and contraction. ROIs were placed on the hippocampus and raphe nucleus using PMOD® image analysis software (PMOD Group, Zurich, Switzerland) with reference to the MRI template. Fine-tuning of the location of ROIs was then performed based on PET images at an early phase (0–30 min) of the scan in order to compensate for small mismatches between coregistered PET and MR images. The cerebellum was used as reference tissue because of its negligible density of 5-HT1A receptors.

[1] = po, read-out: Occupancy (%) Hippocampus
[2] = po, read-out: Occupancy (%) Raphe

- BPND Hippocampus (1 mg/kg oral): 5.612±0.356
- BPND Raphe (1 mg/kg oral): 2.128±0.109
- BPND Hippocampus (3 mg/kg oral): 5.589±0.410
- BPND Raphe (3 mg/kg oral): 2.024±0.097
- BPND Hippocampus (10 mg/kg oral): 4.937±0.550
- BPND Raphe (10 mg/kg oral): 1.620±0.126
- BPND Hippocampus (30 mg/kg oral): 4.836±0.441
- BPND Raphe (30 mg/kg oral): 1.271±0.194
- BPND Hippocampus (100 mg/kg oral): 4.962±0.400
- BPND Raphe (100 mg/kg oral): 1.212±0.073
- Difference in maximal occupancy between hippocampus and raphe nucleus (oral, PET regression curves): more than 2.5 fold
- Maximal occupancy as calculated by the regression curve (raphe nucleus, oral, PET): 53.8% and ~50%
- receptor occupancy at 1 mg/kg [1]: 7 ± 2.7%
- receptor occupancy at 3 mg/kg [1]: 6.8 ± 7.1%
- receptor occupancy at 10 mg/kg [1]: 18.8 ± 6%
- receptor occupancy at 30 mg/kg [1]: 20.3 ± 4.1%
- receptor occupancy at 100 mg/kg [1]: 17.8 ± 4.9%
- receptor occupancy at 1 mg/kg [2]: 8.5 ± 7.6%
- receptor occupancy at 3 mg/kg [2]: 13.2 ± 6.1%
- receptor occupancy at 10 mg/kg [2]: 30.6 ± 6.4%
- receptor occupancy at 30 mg/kg [2]: 46.3 ± 6.9%
- receptor occupancy at 100 mg/kg [2]: 48.2 ± 3.3%
- receptor occupancy at 3 mg/kg (3 mg/kg oral, PET, read-out: Difference in occupancy between hippocampus and raphe nucleus): ~100%
Compound: Cc1nnc(-c2cc3c(OC[C@@H](O)CN4CCC(c5ccc(Cl)c(Cl)c5)CC4)cccc3o2)o1.Cl [Wf-516, (2S)-1-[4-(3,4-dichlorophenyl)piperidin-1-yl]-3-[2-(5-methyl-1,3,4-oxadiazol-2-yl)benzo[b]furan-4-yloxy]propan-2-ol monohydrochloride]
